This is an account of results in US20230365576A1, “BRM Targeting Compounds And Associated Methods Of Use” (Prelude Therapeutics Incorporated, priority 2022, published 2023).

One test concerns the target T1, SMARCA2 (Homo sapiens, UniProt P51531).
T1 construct: SMARCA2-HiBiT knock-in Hela monoclonal cell (CS302366); host or cells: HeLa (CRISPR HiBiT knock-in monoclonal line, heterozygous)
Nature of the test: SMARCA2 HiBiT degradation assay in HeLa cells. To be noted: 18 hours; for DC50: read-out: SMARCA2 IC50; for Dmax: HeLa. It is filed as cell-based. As for the experimental part:
(§1) Example A. SMARCA2 HiBiT and SMARCA4 HiBiT Degradation Assay
(§2) Preparation of SMARCA2/4-HiBiT Knock-In Cells
(§3) HiBiT peptide knock-in of SMARCA2 in LgBiT expressing HEK293T cells was performed by CRISPR-mediated tagging system as described Promega. The homozygous HiBiT knock-in on c-terminus SMARCA2 was confirmed by sanger sequence. SMARCA2-HiBiT knock-in Hela monoclonal cell (CS302366) and SMARCA4-HiBiT knock-in Hela monoclonal cell (CS3023226) were purchased from Promega. The heterozygous HiBiT-knock-in was confirmed by sanger sequence in both SMARCA2-HiBiT and SMARCA4-HiBiT monoclonal cells.
(§4) SMARCA2 HiBiT and SMARCA4 HiBiT Degradation Assay in HeLa Cells
(§5) Compounds were dissolved in DMSO to make 10 mM stock and 3-fold series dilutions were further conducted keeping the highest concentration 10 μM. NCIH1693 and NCIH520 cells were maintained in PRMI 1640 medium (Corning Cellgro, Catalog #:10-040-CV) supplemented with 10% v/v FBS (GE Healthcare, Catalog #: SH30910.03) by splitting 1:3 twice a week.
(§6) Dispense 10 ul aliquot of prepared Hela-SMARCA2-HiBiT or Hela-SMARCA4-HiBiT cells (1:1 ratio of cells:Trypan Blue (#1450013, Bio-Rad)) onto cell counting slide (#145-0011, Bio-Rad) and obtain cell density and cell viability using cell counter (TC20, Bio-Rad). Remove appropriate volume of resuspended cells from culture flask to accommodate 2500 cells/well @ 20 μL/well. Transfer Hela-HiBiT cells to 50 mL conical (#430290, Corning). Spin down at 1000 rpm for 5 min using tabletop centrifuge (SPINCHRON 15, Beckman). Discard supernatant and resuspend cell pellet in modified EMEM (#30-2003, ATCC) cell culture media containing 10% FBS (F2422-500ML, Sigma), and 1X Penicillin/Streptomycin (200 g/L) (30-002-CI, Corning) to a cell density of 125,000 cells/mL. Dispense 20 μL of resuspended Hela-HiBit cells per well in 384-well TC treated plate (#12-565-343, Thermo Scientific) using standard cassette (#50950372, Thermo Scientific) on Multidrop Combi (#5840310, Thermo Scientific) inside laminar flow cabinet. Dispense test compounds onto plates using digital liquid dispenser (D300E, Tecan). Incubate plates in humidified tissue culture incubator @37° C. for 18 hours. Add 20 μL of prepared Nano-Glo® HiBiT Lytic detection buffer (N3050, Promega) to each well of 384-well plate using small tube cassette (#24073295, Thermo Scientific) on Multidrop Combi, incubate @ RT for 30-60 min. Read plates on microplate reader (Envision 2105, PerkinElmer) using 384 well Ultra-Sensitive luminescence mode. Raw data files and compound information reports are swept into centralized data lake and deconvoluted using automated scripts designed by TetraScience, Inc. Data analysis, curve-fitting and reporting done in Dotmatics Informatics Suite using Screening Ultra module.

A further test addresses T2, SMARCA4 (Homo sapiens, UniProt P51532).
T2 construct: SMARCA4-HiBiT knock-in Hela monoclonal cell (CS3023226) were purchased from Promega; host or cells: HeLa (CRISPR HiBiT knock-in monoclonal line, heterozygous)
Nature of the test: SMARCA4 HiBiT degradation assay in HeLa cells. Type of test: cell-based. The following applies: 18 hours; for Dmax: HeLa. As for the experimental part:
as §1, §2, §3, §4, §5, §6

Where only a bound is given, the exact number is not on record here.

T1 sequence (P51531 whole entry): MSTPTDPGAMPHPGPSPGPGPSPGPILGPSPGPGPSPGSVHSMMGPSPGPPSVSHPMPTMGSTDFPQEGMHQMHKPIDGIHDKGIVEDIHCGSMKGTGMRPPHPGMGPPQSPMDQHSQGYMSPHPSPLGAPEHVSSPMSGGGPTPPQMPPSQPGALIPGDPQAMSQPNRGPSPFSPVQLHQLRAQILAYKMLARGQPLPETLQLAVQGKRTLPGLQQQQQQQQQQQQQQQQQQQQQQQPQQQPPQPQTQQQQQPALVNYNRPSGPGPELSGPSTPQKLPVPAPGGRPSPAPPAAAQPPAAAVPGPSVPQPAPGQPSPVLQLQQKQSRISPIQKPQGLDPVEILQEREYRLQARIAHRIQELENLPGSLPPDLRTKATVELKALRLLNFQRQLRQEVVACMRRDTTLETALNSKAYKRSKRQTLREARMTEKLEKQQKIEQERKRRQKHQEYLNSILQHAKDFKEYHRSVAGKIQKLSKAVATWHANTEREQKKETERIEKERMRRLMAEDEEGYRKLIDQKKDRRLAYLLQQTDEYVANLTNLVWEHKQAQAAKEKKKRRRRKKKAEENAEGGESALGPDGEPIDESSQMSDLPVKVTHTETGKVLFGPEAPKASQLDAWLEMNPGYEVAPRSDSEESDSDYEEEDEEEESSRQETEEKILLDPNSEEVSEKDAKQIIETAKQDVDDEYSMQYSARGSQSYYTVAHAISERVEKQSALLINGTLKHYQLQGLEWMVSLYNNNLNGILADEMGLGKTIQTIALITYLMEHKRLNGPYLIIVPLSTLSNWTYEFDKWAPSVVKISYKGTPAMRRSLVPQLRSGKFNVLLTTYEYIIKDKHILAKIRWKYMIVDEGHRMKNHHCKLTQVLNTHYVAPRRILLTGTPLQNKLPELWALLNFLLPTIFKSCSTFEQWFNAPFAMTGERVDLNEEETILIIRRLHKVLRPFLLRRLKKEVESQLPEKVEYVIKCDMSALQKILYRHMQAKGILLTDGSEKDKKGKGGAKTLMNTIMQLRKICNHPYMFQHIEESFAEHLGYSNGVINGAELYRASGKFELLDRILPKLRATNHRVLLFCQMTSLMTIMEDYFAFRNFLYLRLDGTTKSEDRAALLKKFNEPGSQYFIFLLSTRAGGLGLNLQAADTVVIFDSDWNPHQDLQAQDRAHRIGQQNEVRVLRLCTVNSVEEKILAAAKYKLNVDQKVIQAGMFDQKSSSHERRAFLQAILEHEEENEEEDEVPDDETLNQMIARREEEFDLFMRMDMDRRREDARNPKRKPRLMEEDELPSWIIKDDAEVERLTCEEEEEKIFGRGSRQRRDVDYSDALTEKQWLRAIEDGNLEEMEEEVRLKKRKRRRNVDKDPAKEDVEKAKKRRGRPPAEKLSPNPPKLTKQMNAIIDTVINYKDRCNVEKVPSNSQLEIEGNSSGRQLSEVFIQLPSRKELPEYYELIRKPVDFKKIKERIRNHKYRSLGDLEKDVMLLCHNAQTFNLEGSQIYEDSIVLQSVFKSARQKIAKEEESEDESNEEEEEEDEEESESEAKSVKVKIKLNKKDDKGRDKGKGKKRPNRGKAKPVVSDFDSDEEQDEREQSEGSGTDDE
T2 sequence (P51532 whole entry): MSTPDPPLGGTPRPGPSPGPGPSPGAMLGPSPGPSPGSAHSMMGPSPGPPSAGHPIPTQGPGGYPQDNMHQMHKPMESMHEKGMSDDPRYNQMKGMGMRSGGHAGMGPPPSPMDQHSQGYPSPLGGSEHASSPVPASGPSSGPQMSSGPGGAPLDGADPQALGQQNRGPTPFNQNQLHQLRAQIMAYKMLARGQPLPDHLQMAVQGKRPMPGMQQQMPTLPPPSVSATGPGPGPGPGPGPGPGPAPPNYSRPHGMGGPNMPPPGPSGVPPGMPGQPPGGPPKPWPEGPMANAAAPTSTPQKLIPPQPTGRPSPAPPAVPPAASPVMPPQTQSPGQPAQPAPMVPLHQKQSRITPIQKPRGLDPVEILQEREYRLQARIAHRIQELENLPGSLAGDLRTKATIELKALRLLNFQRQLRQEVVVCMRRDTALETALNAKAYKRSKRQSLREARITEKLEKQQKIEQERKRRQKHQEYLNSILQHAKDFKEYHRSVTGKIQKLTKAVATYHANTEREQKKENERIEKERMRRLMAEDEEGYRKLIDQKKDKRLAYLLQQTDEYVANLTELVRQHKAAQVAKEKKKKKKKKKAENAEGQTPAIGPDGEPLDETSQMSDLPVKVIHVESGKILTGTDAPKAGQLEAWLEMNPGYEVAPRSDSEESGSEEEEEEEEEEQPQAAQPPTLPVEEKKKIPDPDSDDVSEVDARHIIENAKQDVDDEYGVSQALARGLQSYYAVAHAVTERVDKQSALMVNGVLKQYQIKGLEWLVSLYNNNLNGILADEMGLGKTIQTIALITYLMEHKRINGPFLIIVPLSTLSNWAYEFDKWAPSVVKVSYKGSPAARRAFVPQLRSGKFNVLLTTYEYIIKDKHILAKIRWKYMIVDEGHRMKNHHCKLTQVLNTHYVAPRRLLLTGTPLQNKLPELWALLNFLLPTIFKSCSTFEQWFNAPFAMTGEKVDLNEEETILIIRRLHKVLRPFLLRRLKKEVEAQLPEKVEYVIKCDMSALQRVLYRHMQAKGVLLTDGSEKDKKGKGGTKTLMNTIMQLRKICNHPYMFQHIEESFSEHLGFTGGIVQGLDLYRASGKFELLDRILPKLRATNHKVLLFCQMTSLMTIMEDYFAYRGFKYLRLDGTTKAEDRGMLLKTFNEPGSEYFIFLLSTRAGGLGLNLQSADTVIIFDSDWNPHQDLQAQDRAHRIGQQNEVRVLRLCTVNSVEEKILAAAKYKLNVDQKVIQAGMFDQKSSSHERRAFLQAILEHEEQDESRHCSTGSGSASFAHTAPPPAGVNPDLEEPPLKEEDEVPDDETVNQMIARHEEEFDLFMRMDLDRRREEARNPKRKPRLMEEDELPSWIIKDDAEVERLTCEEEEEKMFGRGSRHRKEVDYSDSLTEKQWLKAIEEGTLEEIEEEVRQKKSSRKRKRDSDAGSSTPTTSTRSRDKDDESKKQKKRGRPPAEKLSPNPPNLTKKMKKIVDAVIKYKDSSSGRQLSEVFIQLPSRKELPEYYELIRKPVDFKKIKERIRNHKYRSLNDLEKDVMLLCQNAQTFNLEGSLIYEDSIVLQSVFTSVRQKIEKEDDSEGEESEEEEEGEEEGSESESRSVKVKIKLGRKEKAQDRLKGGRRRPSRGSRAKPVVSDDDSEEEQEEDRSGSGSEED

For the compound `C[C@@H]1CN(C[C@H]2CN(c3ccc4c(c3)CN(C3CCC(=O)NC3=O)C4=O)CCO2)C[C@H](C)N1C(=O)N1CCN2c3cc(-c4cc(F)cc(F)c4O)nnc3NC[C@H]2C1` (stereo partly drawn) [Example 21, 3-(5-((S)-2-(((3R,5S)-4-((S)-2-(3,5-difluoro-2-hydroxyphenyl)-6,6a,7,8,9,10-hexahydro-5H-pyrazino[1′,2′:4,5]pyrazino[2,3-c]pyridazine-8-carbonyl)-3,5-dimethylpiperazin-1-yl)methyl)morpholino)-1-oxoisoindolin-2-yl)piperidine-2,6-dione], on SMARCA2, the DC50 is below 100 nM and the greatest degradation seen (Dmax) was above 75%. At SMARCA4, the DC50 is below 100 nM and the Dmax is below 50%.

Consider `CCC12CNc3nnc(-c4cc(F)cc(F)c4O)cc3N1CCN(C(=O)C1(F)CCC(CN3CCN(c4ccc5c(c4)C(=O)N([C@H]4CCC(=O)NC4=O)C5)CC3)CC1)C2` (single isomer, unassigned) [Example 103], for which, at SMARCA2, the “SMARCA2 DMax %” value is on record as “A (A=Dmax>75%)” and the DC50 is below 100 nM. Further, on SMARCA4, the DC50 was below 100 nM and the “SMARCA4 DMax %” value is reported as “B (B=50%<Dmax≤75%)”.

Regarding `CCC12CNc3nnc(-c4cccc(F)c4O)cc3N1CCN(C(=O)N1CCN(CC3CCN(c4ccc5c(c4)C(=O)N(C4CCC(=O)NC4=O)C5)CC3)CC1(C)C)C2` (mixture of isomers) [Example 8, 3-(6-(4-((4-(6a-ethyl-2-(3-fluoro-2-hydroxyphenyl)-6,6a,7,8,9,10-hexahydro-5H-pyrazino[1′,2′:4,5]pyrazino[2,3-c]pyridazine-8-carbonyl)-3,3-dimethylpiperazin-1-yl)methyl)piperidin-1-yl)-1-oxoisoindolin-2-yl)piperidine-2,6-dione], on SMARCA2, the DC50 is below 100 nM and the maximal degradation (Dmax) was above 75%. For the same compound, on SMARCA4, the DC50 is below 100 nM and the greatest degradation seen (Dmax) lay in the range of 50 to 75%.

For the compound `CC1(C)CC(CN2CCN(c3ccc4c(c3)C(=O)N([C@H]3CCC(=O)NC3=O)C4)CC2)CCN1C(=O)N1CCN2c3cc(-c4cccc(F)c4O)nnc3NCC2(C)C1` (single isomer, unassigned) [Example 123], on SMARCA2, the DC50 is below 100 nM and the Dmax was above 75%. On SMARCA4, the DC50 was below 100 nM and the “SMARCA4 DMax %” value is “A (A=Dmax>75%)”.

Turning to `CCC12CNc3nnc(-c4cccc(F)c4O)cc3N1CCN(C(=O)C1(F)CCN(CC3CCN(c4ccc5c(c4)C(=O)N([C@H]4CCC(=O)NC4=O)C5)CC3)CC1)C2` (single isomer, unassigned) [Example 107], at SMARCA2, the DC50 is below 100 nM and the Dmax is above 75%. In addition, at SMARCA4, the DC50 was 100 to 1000 nM and the “SMARCA4 DMax %” value is on record as “C (C=Dmax<50%)”.

As to `C[C@@H]1C[C@H](CN2CCN(c3ccc4c(c3)C(=O)N([C@H]3CCC(=O)NC3=O)C4)CC2)C[C@H](C)N1C(=O)N1CCN2c3cc(-c4cccc(F)c4O)nnc3NCC2(C)C1` (single isomer, unassigned) [Example 120], at SMARCA2, the DC50 was below 100 nM and the greatest degradation seen (Dmax) was above 75%. On SMARCA4, this compound registered a DC50 below 100 nM and a Dmax above 75%.

For `COCC12CNc3nnc(-c4cccc(F)c4O)cc3N1CCN(C(=O)N1CCN(CC3CCN(c4ccc5c(c4)C(=O)N([C@H]4CCC(=O)NC4=O)C5)CC3)CC1(C)C)C2` (single isomer, unassigned) [Example 93], at SMARCA2, the DC50 is below 100 nM and the maximal degradation (Dmax) was above 75%. At SMARCA4, this compound showed a DC50 above 1000 nM and a Dmax below 50%.

As to `O=C1CCC(N2Cc3ccc(N4CCC(CN5C[C@@H]6[C@H](C5)[C@H]6CN5CCN6c7cc(-c8cc(F)cc(F)c8O)nnc7NC[C@H]6C5)C(F)(F)C4)cc3C2=O)C(=O)N1` (single isomer, unassigned) [Example 40], at SMARCA2, the “SMARCA2 DMax %” value was “B (B=50%<Dmax≤75%)” and the DC50 is below 100 nM. Besides, at SMARCA4, the DC50 is below 100 nM and the Dmax fell in the range of 50 to 75%.

Turning to `CCC12CNc3nnc(-c4cccc(F)c4O)cc3N1CCN(C(=O)N1C[C@H](C)N(CC3CCN(c4ccc5c(c4)C(=O)N([C@H]4CCC(=O)NC4=O)C5)CC3)C[C@H]1C)C2` (single isomer, unassigned) [Example 78], at SMARCA2, the DC50 was below 100 nM and the Dmax is above 75%. At SMARCA4, this compound yielded a DC50 below 100 nM and a maximal degradation (Dmax) of 50 to 75%.

`C[C@@H]1CN(CC2CCN(c3ccc4c(c3)C(=O)N([C@H]3CCC(=O)NC3=O)C4)CC2)C[C@@H](C)N1C(=O)N1CCN2c3cc(-c4cccc(F)c4O)nnc3NCC2(C(F)(F)F)C1` (single isomer, unassigned) [Example 97]: on SMARCA2, the “SMARCA2 DMax %” value is on record as “A (A=Dmax>75%)” and the DC50 was below 100 nM. Also, on SMARCA4, the DC50 lay in the range of 100 to 1000 nM and the “SMARCA4 DMax %” value is “C (C=Dmax<50%)”.

Take `C[C@@H]1CN(CC2CCN(c3ccc4c(c3)C(=O)N(C3CCC(=O)NC3=O)C4)CC2)C[C@H](C)N1C(=O)N1CCN2c3cc(-c4cc(F)cc(F)c4O)nnc3NC[C@H]2C1` (stereo partly drawn) [Example 15, 3-(6-(4-(((3R,5S)-4-((S)-2-(3,5-difluoro-2-hydroxyphenyl)-6,6a,7,8,9,10-hexahydro-5H-pyrazino[1′,2′:4,5]pyrazino[2,3-c]pyridazine-8-carbonyl)-3,5-dimethylpiperazin-1-yl)methyl)piperidin-1-yl)-1-oxoisoindolin-2-yl)piperidine-2,6-dione]: the DC50 on SMARCA2 and on SMARCA4 was below 100 nM throughout. The Dmax at SMARCA2 was above 75%; on SMARCA4, 50 to 75%.

Regarding `C[C@@H]1C[C@H](CN2CCN(c3ccc4c(c3)C(=O)N([C@H]3CCC(=O)NC3=O)C4)CC2)C[C@H](C)N1C(=O)N1CCN2c3cc(-c4cccc(F)c4O)nnc3NC[C@@]2(C(F)F)C1` [Example 71, (S)-3-(6-(4-(((2R,4S,6S)-1-((S)-6a-(difluoromethyl)-2-(3-fluoro-2-hydroxyphenyl)-6,6a,7,8,9,10-hexahydro-5H-pyrazino[1′,2′:4,5]pyrazino[2,3-c]pyridazine-8-carbonyl)-2,6-dimethylpiperidin-4-yl)methyl)piperazin-1-yl)-1-oxoisoindolin-2-yl)piperidine-2,6-dione], at SMARCA2, the DC50 is below 100 nM and the greatest degradation seen (Dmax) is above 75%. On SMARCA4, this compound displayed a DC50 of 100 to 1000 nM and a Dmax below 50%.

Consider `CC1(C)CN(CC2CCN(c3ccc4c(c3)C(=O)N([C@H]3CCC(=O)NC3=O)C4)CC2)CCN1C(=O)N1CCN2c3cc(-c4cc(F)cc(F)c4O)nnc3NC[C@H]2C1` [Example 19, (S)-3-(6-(4-((4-((S)-2-(3,5-difluoro-2-hydroxyphenyl)-6,6a,7,8,9,10-hexahydro-5H-pyrazino[1′,2′:4,5]pyrazino[2,3-c]pyridazine-8-carbonyl)-3,3-dimethylpiperazin-1-yl)methyl)piperidin-1-yl)-1-oxoisoindolin-2-yl)piperidine-2,6-dione], for which the DC50 at SMARCA2 and at SMARCA4 was below 100 nM each time. For the same compound, the maximal degradation (Dmax) was above 75% at SMARCA2 and 51% on SMARCA4 (given as a number).

With `CC12CNc3nnc(-c4cc(F)cc(F)c4O)cc3N1CCN(C(=O)C1(F)CCN(CC3CCN(c4ccc5c(c4)C(=O)N([C@H]4CCC(=O)NC4=O)C5)CC3)CC1)C2` (single isomer, unassigned) [Example 113], on SMARCA2, the “SMARCA2 DMax %” value is on record as “A (A=Dmax>75%)” and the DC50 was below 100 nM. On SMARCA4, the DC50 was above 1000 nM and the “SMARCA4 DMax %” value was “C (C=Dmax<50%)”.
